#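 Briefly, cells in 96-well plates were exposed to five compound concentrations for 48 h, and endpoints were estimated by linear interpolation. GI50 marks 50% less growth. TGI is the concentration that stops growth completely.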
# Tests used:
# Experiment in all cases: NCI-60 cell line screen, 48 h
# SW-620 colon = tested on: SW-620 colon
# A549 NSCLC = tested on: A549 NSCLC
# U251 CNS = tested on: U251 CNS
# SF-268 CNS = tested on: SF-268 CNS
# HS 578T breast = tested on: HS 578T breast
# UO-31 renal = tested on: UO-31 renal
# OVCAR-5 ovarian = tested on: OVCAR-5 ovarian
# COLO 205 colon = tested on: COLO 205 colon
# MALME-3M melanoma = tested on: MALME-3M melanoma
# NCI/ADR-RES ovarian = tested on: NCI/ADR-RES ovarian
Structure (SMILES),GI50 (SW-620 colon) [µM],TGI (SW-620 colon) [µM],GI50 (A549 NSCLC) [µM],TGI (A549 NSCLC) [µM],GI50 (U251 CNS) [µM],TGI (U251 CNS) [µM],GI50 (SF-268 CNS) [µM],TGI (SF-268 CNS) [µM],GI50 (HS 578T breast) [µM],TGI (HS 578T breast) [µM],GI50 (UO-31 renal) [µM],TGI (UO-31 renal) [µM],GI50 (OVCAR-5 ovarian) [µM],TGI (OVCAR-5 ovarian) [µM],GI50 (COLO 205 colon) [µM],TGI (COLO 205 colon) [µM],GI50 (MALME-3M melanoma) [µM],TGI (MALME-3M melanoma) [µM],GI50 (NCI/ADR-RES ovarian) [µM],TGI (NCI/ADR-RES ovarian) [µM]
CCc1ccc(CCC(=O)Nc2ncc(Cc3ccccc3)s2)o1,0.889,> 100,4.47,> 100,3.06,> 100,8.64,> 100,2.29,> 100,3.19,> 100,3.93,> 100,2.28,> 100,18.3,> 100,2.39,> 100
C=C1C(=O)O[C@@H]2C[C@@H](C)[C@@H]3[C@@H](OC4OC(COC(C)=O)C(O)C(O)C4O)CC(=O)[C@@]3(C)C[C@H]12 (some centres not stated),–,1.61,–,22.3,–,19.7,–,44.7,–,> 100,–,3.38,–,8.07,–,1.88,–,0.849,–,14.5
CN(C)CCCn1c2c3ccccc3ccc2c2oc(=O)c3ccccc3c21,–,7.95,–,11,–,9.26,–,13.4,–,> 65.6,–,15.1,–,55.5,–,5.87,–,29.8,–,> 26.9
COC[C@H]1OC(=O)c2coc3c2[C@@]1(C)C1=C(C3=O)[C@@H]2CCC(=O)[C@@]2(C)C[C@H]1OC(C)=O,–,> 100,–,> 100,36.8,> 100,–,> 100,0.341,6.9,–,> 72.8,–,> 100,–,> 31.6,1.44,39.3,–,> 100
O=C(Nc1ccc2oc(=O)c(C(=O)O)cc2c1)Oc1ccccc1,–,> 100,–,> 100,–,> 100,–,> 100,–,> 100,–,> 100,–,> 100,–,> 100,–,> 100,–,> 100
O=C(CNC(=O)c1cccc2ccccc12)Nc1ccccc1Oc1ccccc1,0.283,> 10,0.459,> 10,0.328,> 10,0.435,> 10,0.363,> 10,0.643,> 10,0.521,> 10,0.308,1.14,–,> 10,0.239,> 10

# Source: PubChem BioAssay (NCI)
